This note sets out measurements from patent US20230143604A1, “QW DOSING OF GIP RECEPTOR AGONIST PEPTIDE COMPOUNDS AND USES THEREOF” (TAKEDA PHARMACEUTICAL COMPANY LIMITED, priority 2020, published 2023).

The data set is described as follows: Solubility in phosphate buffer pH 7.4. In outline:
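3 mg of peptide treated with 100 μL portions of 200 mM phosphate buffer pH 7.4, sonicating/vortexing up to 1 min, with further buffer added until fully dissolved. Solubility then quantified by HPLC.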

Setting [1] is: pH 7.4, aqueous buffer, pH 7.4 Phosphate Buffer - Solubility, 200 mM Phosphate buffer pH 7.4.
The mark [2] stands for this setting: pH 7.4, solubility in phosphate buffer at pH 7.4, 200 mM phosphate buffer pH 7.4.

Structures are written as SMILES. Starred links: 1 amine or outer side, 2 acyl side, 3 side chain; linkers in the order of their positions; H or OH if unused. Positions of bridges follow the written chain, without caps; N, C: chain ends. Non-standard residues stand in square brackets, D forms with d. Residues, ends and D or L forms follow the SMILES beside them. Groups on a side chain read outwards from the residue. Chains are numbered I, II in the order given. *: point of attachment. C18 diacid = O=C(O)CCCCCCCCCCCCCCCCC(=O)*; γGlu = O=C(O)[C@H](CCC(=O)[*:2])N[*:1]; NMeY = CN[C@@H](Cc1ccc(O)cc1)C(=O)O; AEEA = NCCOCCOCC(=O)O; Aib = CC(C)(N)C(=O)O

As to `CC[C@H](C)[C@H](NC(=O)[C@H](CO)NC(=O)[C@H](Cc1ccc(O)cc1)NC(=O)[C@H](CC(=O)O)NC(=O)[C@H](CO)NC(=O)[C@@H](NC(=O)[C@H](Cc1ccccc1)NC(=O)[C@@H](NC(=O)CNC(=O)[C@H](CCC(=O)O)NC(=O)C(C)(C)NC(=O)[C@H](Cc1ccc(O)cc1)NC)[C@@H](C)O)[C@@H](C)CC)C(=O)N[C@@H](C)C(=O)N[C@@H](CC(C)C)C(=O)N[C@@H](CC(=O)O)C(=O)N[C@@H](CCCNC(=N)N)C(=O)N[C@@H](CCCCNC(=O)CNC(=O)CNC(=O)CNC(=O)CNC(=O)CNC(=O)CCCCCCCCCCCCCCCC(=O)O)C(=O)N[C@@H](Cc1c[nH]cn1)C(=O)N[C@@H](CCC(N)=O)C(=O)NC(C)(C)C(=O)N[C@@H](CC(N)=O)C(=O)N[C@@H](Cc1ccccc1)C(=O)N[C@H](C(=O)N[C@@H](CC(N)=O)C(=O)N[C@@H](Cc1c[nH]c2ccccc12)C(=O)N[C@@H](CC(C)C)C(=O)N[C@@H](CC(C)C)C(=O)N[C@@H](C)C(=O)N[C@@H](CCC(N)=O)C(=O)N[C@@H](CCCNC(=N)N)C(=O)N1CCC[C@H]1C(=O)N[C@@H](CO)C(=O)N[C@@H](CO)C(=O)NCC(=O)N[C@@H](C)C(=O)N1CCC[C@H]1C(=O)N1CCC[C@H]1C(=O)N1CCC[C@H]1C(=O)N[C@@H](CO)C(=O)O)C(C)C` [Compound 259], the solubility (commonly the concentration that dissolves in the medium under given conditions) under setting [1] is < 6 mg/mL.

In the case of `CC[C@H](C)[C@H](NC(=O)[C@H](CO)NC(=O)[C@H](Cc1ccc(O)cc1)NC(=O)[C@H](CC(=O)O)NC(=O)[C@H](CO)NC(=O)[C@@H](NC(=O)[C@H](Cc1ccccc1)NC(=O)[C@@H](NC(=O)CNC(=O)[C@H](CCC(=O)O)NC(=O)C(C)(C)NC(=O)[C@H](Cc1ccc(O)cc1)NC)[C@@H](C)O)[C@@H](C)CC)C(=O)N[C@@H](C)C(=O)N[C@@H](CC(C)C)C(=O)N[C@@H](CC(=O)O)C(=O)N[C@@H](CCCNC(=N)N)C(=O)NC(C)(C)C(=O)N[C@@H](C)C(=O)N[C@@H](CCC(N)=O)C(=O)NC(C)(C)C(=O)N[C@@H](CCCCNC(=O)COCCOCCNC(=O)COCCOCCNC(=O)CC[C@H](NC(=O)CC[C@H](NC(=O)CCCCCCCCCCCCCCCCC(=O)O)C(=O)O)C(=O)O)C(=O)N[C@@H](Cc1ccccc1)C(=O)N[C@H](C(=O)N[C@@H](CC(N)=O)C(=O)N[C@@H](Cc1c[nH]c2ccccc12)C(=O)N[C@@H](CC(C)C)C(=O)N[C@@H](CC(C)C)C(=O)N[C@@H](C)C(=O)N[C@@H](CCC(N)=O)C(=O)N[C@@H](CO)C(=O)N1CCC[C@H]1C(=O)N[C@@H](CO)C(=O)N[C@@H](CO)C(=O)NCC(=O)N[C@@H](C)C(=O)N1CCC[C@H]1C(=O)N1CCC[C@H]1C(=O)N1CCC[C@H]1C(=O)N[C@@H](CO)C(N)=O)C(C)C` [Compound 97] (H-[NMeY][Aib]EGTFISDYSIALDR[Aib]AQ[Aib]K([AEEA-AEEA-γGlu-γGlu-C18 diacid])FVNWLLAQSPSSGAPPPS-NH2), the solubility under setting [1] is ≥ 60 mg/mL and the solubility under setting [2] was ≥ 15 mg/mL.

Regarding `CC[C@H](C)[C@H](NC(=O)[C@H](CO)NC(=O)[C@H](Cc1ccc(O)cc1)NC(=O)[C@H](CC(=O)O)NC(=O)[C@H](CO)NC(=O)[C@@H](NC(=O)[C@H](Cc1ccccc1)NC(=O)[C@@H](NC(=O)CNC(=O)[C@H](CCC(=O)O)NC(=O)C(C)(C)NC(=O)[C@@H](N)Cc1ccc(O)cc1)[C@@H](C)O)[C@@H](C)CC)C(=O)N[C@@H](C)C(=O)NC(C)(C)C(=O)N[C@@H](CC(=O)O)C(=O)N[C@@H](CCCCN)C(=O)N[C@@H](C)C(=O)N[C@@H](C)C(=O)N[C@@H](CCC(N)=O)C(=O)N[C@@H](CCC(N)=O)C(=O)N[C@@H](CCCCNC(=O)COCCOCCNC(=O)COCCOCCNC(=O)CC[C@H](NC(=O)CC[C@H](NC(=O)CCCCCCCCCCCCCCCCC(=O)O)C(=O)O)C(=O)O)C(=O)N[C@@H](Cc1ccccc1)C(=O)N[C@H](C(=O)N[C@@H](CCC(=O)O)C(=O)N[C@@H](Cc1c[nH]c2ccccc12)C(=O)N[C@@H](CC(C)C)C(=O)N[C@@H](CC(C)C)C(=O)N[C@@H](C)C(=O)N[C@@H](CCC(N)=O)C(=O)N[C@@H](CCCNC(=N)N)C(=O)NCC(=O)O)C(C)C` [Compound 157] (H-Y[Aib]EGTFISDYSIA[Aib]DKAAQQK([AEEA-AEEA-γGlu-γGlu-C18 diacid])FVEWLLAQRG-OH), the solubility is ≥ 15 mg/mL (pH 7.4) and ≥ 30 mg/mL (pH 7.4, aqueous buffer).

`CC[C@H](C)[C@H](NC(=O)[C@H](Cc1ccccc1)NC(=O)[C@@H](NC(=O)CNC(=O)[C@H](CCC(=O)O)NC(=O)C(C)(C)NC(=O)[C@H](Cc1ccc(O)cc1)NC)[C@@H](C)O)C(=O)N[C@@H](CO)C(=O)N[C@@H](CC(=O)O)C(=O)N[C@@H](Cc1ccc(O)cc1)C(=O)N[C@@H](CO)C(=O)N[C@H](C(=O)NC(C)(C)C(=O)N[C@@H](CC(C)C)C(=O)N[C@@H](CC(=O)O)C(=O)N[C@@H](CCCNC(=N)N)C(=O)NC(C)(C)C(=O)N[C@@H](C)C(=O)N[C@@H](CCC(N)=O)C(=O)NC(C)(C)C(=O)N[C@@H](CCCCNC(=O)COCCOCCNC(=O)COCCOCCNC(=O)CC[C@H](NC(=O)CC[C@H](NC(=O)CCCCCCCCCCCCCCCCC(=O)O)C(=O)O)C(=O)O)C(=O)N[C@@H](Cc1ccccc1)C(=O)N[C@H](C(=O)N[C@@H](CC(N)=O)C(=O)N[C@@H](Cc1c[nH]c2ccccc12)C(=O)N[C@@H](CC(C)C)C(=O)N[C@@H](CC(C)C)C(=O)N[C@@H](C)C(=O)N[C@@H](CCC(N)=O)C(=O)N[C@@H](CCCNC(=N)N)C(=O)N1CCC[C@H]1C(=O)N[C@@H](CO)C(=O)N[C@@H](CO)C(=O)NCC(=O)N[C@@H](C)C(=O)N1CCC[C@H]1C(=O)N1CCC[C@H]1C(=O)N1CCC[C@H]1C(=O)N[C@@H](CO)C(N)=O)C(C)C)[C@@H](C)CC` [Compound 89] (H-[NMeY][Aib]EGTFISDYSI[Aib]LDR[Aib]AQ[Aib]K([AEEA-AEEA-γGlu-γGlu-C18 diacid])FVNWLLAQRPSSGAPPPS-NH2): the solubility under setting [1] was ≥ 60 mg/mL and the solubility under setting [2] was ≥ 15 mg/mL.

As to `CC[C@H](C)[C@H](NC(=O)[C@H](CO)NC(=O)[C@H](Cc1ccc(O)cc1)NC(=O)[C@H](CC(=O)O)NC(=O)[C@H](CO)NC(=O)[C@@H](NC(=O)[C@H](Cc1ccccc1)NC(=O)[C@@H](NC(=O)CNC(=O)[C@H](CCC(=O)O)NC(=O)C(C)(C)NC(=O)[C@H](Cc1ccc(O)cc1)NC)[C@@H](C)O)[C@@H](C)CC)C(=O)N[C@@H](C)C(=O)N[C@@H](CC(C)C)C(=O)N[C@@H](CC(=O)O)C(=O)N[C@@H](CCCNC(=N)N)C(=O)NC(C)(C)C(=O)N[C@@H](C)C(=O)N[C@@H](CCC(N)=O)C(=O)NC(C)(C)C(=O)N[C@@H](CC(=O)O)C(=O)N[C@@H](Cc1ccccc1)C(=O)N[C@H](C(=O)N[C@@H](CC(N)=O)C(=O)N[C@@H](Cc1c[nH]c2ccccc12)C(=O)N[C@@H](CC(C)C)C(=O)N[C@@H](CC(C)C)C(=O)N[C@@H](C)C(=O)N[C@@H](CCCCNC(=O)COCCOCCNC(=O)COCCOCCNC(=O)CC[C@H](NC(=O)CC[C@H](NC(=O)CCCCCCCCCCCCCCCCC(=O)O)C(=O)O)C(=O)O)C(=O)N[C@@H](CCCNC(=N)N)C(=O)N1CCC[C@H]1C(=O)N[C@@H](CO)C(=O)N[C@@H](CO)C(=O)NCC(=O)N[C@@H](C)C(=O)N1CCC[C@H]1C(=O)N1CCC[C@H]1C(=O)N1CCC[C@H]1C(=O)N[C@@H](CO)C(N)=O)C(C)C` [Compound 58] (H-[NMeY][Aib]EGTFISDYSIALDR[Aib]AQ[Aib]DFVNWLLAK([AEEA-AEEA-γGlu-γGlu-C18 diacid])RPSSGAPPPS-NH2), the solubility reads like this: under setting [1], ≥ 30 mg/mL; under setting [2], ≥ 15 mg/mL.

As to `CC[C@H](C)[C@H](NC(=O)[C@H](CO)NC(=O)[C@H](Cc1ccc(O)cc1)NC(=O)[C@H](CC(=O)O)NC(=O)[C@H](CO)NC(=O)[C@@H](NC(=O)[C@H](Cc1ccccc1)NC(=O)[C@@H](NC(=O)CNC(=O)[C@H](CCC(=O)O)NC(=O)C(C)(C)NC(=O)[C@H](Cc1ccc(O)cc1)NC)[C@@H](C)O)[C@@H](C)CC)C(=O)N[C@@H](C)C(=O)N[C@@H](CC(C)C)C(=O)N[C@@H](CC(=O)O)C(=O)N[C@@H](CCCNC(=N)N)C(=O)NC(C)(C)C(=O)N[C@@H](C)C(=O)N[C@@H](CCC(N)=O)C(=O)NC(C)(C)C(=O)N[C@@H](CCCCNC(=O)CNC(=O)CNC(=O)[C@@H]1CCCN1C(=O)[C@H](C)NC(=O)[C@@H]1CCCN1C(=O)[C@H](C)NC(=O)[C@@H]1CCCN1C(=O)CC[C@H](NC(=O)CCCCCCCCCCCCCCCCC(=O)O)C(=O)O)C(=O)N[C@@H](Cc1ccccc1)C(=O)N[C@H](C(=O)N[C@@H](CC(N)=O)C(=O)N[C@@H](Cc1c[nH]c2ccccc12)C(=O)N[C@@H](CC(C)C)C(=O)N[C@@H](CC(C)C)C(=O)N[C@@H](C)C(=O)N[C@@H](CCC(N)=O)C(=O)N[C@@H](CO)C(=O)N1CCC[C@H]1C(=O)NCC(=O)O)C(C)C` [Compound 117] (I: H-[NMeY][Aib]EGTFISDYSIALDR[Aib]AQ[Aib]KFVNWLLAQSPG-OH / II: {C18 diacid-γGlu}-PAPAPGG; amide I:21-II:C), the solubility reads like this: (pH 7.4) ≥ 15 mg/mL; (pH 7.4, aqueous buffer) ≥ 30 mg/mL.

Turning to `CC[C@H](C)[C@H](NC(=O)[C@H](CO)NC(=O)[C@H](Cc1ccc(O)cc1)NC(=O)[C@H](CC(=O)O)NC(=O)[C@H](CO)NC(=O)[C@@H](NC(=O)[C@H](Cc1ccccc1)NC(=O)[C@@H](NC(=O)CNC(=O)[C@H](CCC(=O)O)NC(=O)C(C)(C)NC(=O)[C@H](Cc1ccc(O)cc1)NC)[C@@H](C)O)[C@@H](C)CC)C(=O)N[C@@H](C)C(=O)N[C@@H](CCCCNC(=O)COCCOCCNC(=O)COCCOCCNC(=O)CC[C@H](NC(=O)CCCCCCCCCCCCCCCCC(=O)O)C(=O)O)C(=O)N[C@@H](CC(=O)O)C(=O)N[C@@H](CCCNC(=N)N)C(=O)NC(C)(C)C(=O)N[C@@H](C)C(=O)N[C@@H](CCC(N)=O)C(=O)NC(C)(C)C(=O)N[C@@H](CC(N)=O)C(=O)N[C@@H](Cc1ccccc1)C(=O)N[C@H](C(=O)N[C@@H](CC(N)=O)C(=O)N[C@@H](Cc1c[nH]c2ccccc12)C(=O)N[C@@H](CC(C)C)C(=O)N[C@@H](CC(C)C)C(=O)N[C@@H](C)C(=O)N[C@@H](CCC(N)=O)C(=O)N[C@@H](CCCCN)C(N)=O)C(C)C` [Compound 6] (H-[NMeY][Aib]EGTFISDYSIAK([AEEA-AEEA-γGlu-C18 diacid])DR[Aib]AQ[Aib]NFVNWLLAQK-NH2), the solubility (pH 7.4, aqueous buffer) was ≥ 15 mg/mL.
